Columns and labels:
[1] = system: WRN (aa S2-S1235) variants; assay: ATPase activity of WRN mutants (ADP-Glo, DNA stimulated ATPase activity); format: biochemical; details: for Ratio to WT: Table 10, ATPase activity; for Observed Helicase Activity (AU/min): Table 10, ATPase activity of WRN mutants
Procedure: (§1) Point mutations were made in the His-tagged WRN construct used for biochemical characterization (aa S2-S1235). Cysteine 580 (Walker A motif), 727 (linker), 864 (Domain 2A) and 1041 (RQC domain) were each mutated to both Serine and Alanine using site directed mutagenesis, for a total of eight mutants. Purified proteins were assayed in both helicase and ATPase assays. Cys580 mutation to either Ser or Ala abolished all activity, consistent with Walker A motif cysteine function. Cys864 (D2) mutation to alanine and Cys1041 (RQC domain) had no significant impact on helicase or ATPase activity. Cys727 abolished helicase activity (Table 9), whether it was mutated to Ala or Ser. ATPase activity for Cys727 mutants was reduced but not abolished (Table 10). Table 9 is the panel of the nine variant WRN helicase proteins that were screen using a flourscence-based DNA unwinding assay with an increase in flourscence intensity indicating DNA unwinding. Table 10 is the panel of the nine variant WRN helicase proteins that were screened using ADP-Glo assay to measure DNA stimulated ATPase activity, with an increase in luminescence indicating ATP hydrolysis.

[2] = system: WRN (aa S2-S1235) variants; assay: Helicase activity of WRN mutants (fluorescence-based DNA unwinding assay); format: biochemical; details: for Ratio to WT: Table 9, helicase activity; for Observed Helicase Activity (AU/min): Table 9, helicase activity of WRN mutants
Procedure: as §1

Row | Ratio to WT [1] | Ratio to WT [2] | Substance | Observed Helicase Activity (AU/min) [1] | Observed Helicase Activity (AU/min) [2]
1 | 0.59 | 0.62 | 8. C1041S: His-tagged WRN construct (aa S2-S1235), Cysteine 1041 (RQC domain) mutated to Serine | 45.74 AU/min | 40.28 AU/min
2 | 0.54 | 0.44 | 6. C864S: His-tagged WRN construct (aa S2-S1235), Cysteine 864 (Domain 2A) mutated to Serine | 42.02 AU/min | 28.49 AU/min
3 | 0.85 | 0.93 | 7. C1041A: His-tagged WRN construct (aa S2-S1235), Cysteine 1041 (RQC domain) mutated to Alanine | 66.66 AU/min | 60.14 AU/min
4 | 0.29 | 0.07 | 3. C727A: His-tagged WRN construct (aa S2-S1235), Cysteine 727 (linker) mutated to Alanine | 22.65 AU/min | 4.619 AU/min
5 | 0.01 | 0.00 | 2. C580S: His-tagged WRN construct (aa S2-S1235), Cysteine 580 (Walker A motif) mutated to Serine | 0.8014 AU/min | 0 AU/min
6 | 0.03 | 0.02 | 1. C580A: His-tagged WRN construct (aa S2-S1235), Cysteine 580 (Walker A motif) mutated to Alanine | 2.548 AU/min | 1.04 AU/min
7 | 0.90 | 0.94 | 5. C864A: His-tagged WRN construct (aa S2-S1235), Cysteine 864 (Domain 2A) mutated to Alanine | 70.52 AU/min | 60.75 AU/min

Reference: patent US20250270217A1, “IMIDAZ0[1,2-A]PYRIMIDINE-5(1 H)-ONES HAVING A COVALENT WARHEAD AT THE 3-POSITION AS WRN INHIBITORS” (Incyte Corporation, priority 2023, published 2025)
